These results are taken from patent US8008074B2, “Compositions and methods for improving bone mass through modulation of receptors of PTH and fragments thereof” (The UAB Research Foundation, priority 2006, dated 2011).

Entries after “also recorded” stand apart in the source; their conditions may differ.

Common to all, as to format: cell-based
Test [1] concerns Wnt responsive luciferase reporter (TCF4-Luc). In words: TCF4-Luc luciferase reporter assay in UMR 106 cells. The settings on record: for TCF luciferase activity: 5×10^−7 M of indicated PTH ligands for 12 hours. For orientation: Reporter assays use an easily measured gene product as a stand-in for the process of interest.
For another test, the system named is β-catenin. Kind of test: β-catenin stabilization, Western blot of UMR 106 cell fractions. The settings on record: UMR 106 cells; for inhibition of PTH-induced β-catenin stabilization: inhibitor 30 minutes before 10^−7 M PTH (1-84) for 1 hour, cytosolic fraction. (In western blotting, separated proteins are transferred to a membrane and probed.)
The test system of the next test is LRP6/Axin binding. Kind of test: Axin-LRP6 binding immunoprecipitation assay. The settings on record: for inhibition of PTH-induced binding of Axin to LRP6: pre-treatment 30 minutes, then PTH (1-84) for 1 hour; for Axin-LRP6 binding: HEK 293 cells cotransfected with LRP6, Axin and GSK3β, ligand for 1 hour.
The next test deals with Axin. In words: Axin protein levels. The settings on record: cells overexpressing LRP6. The text has this:
Binding of Axin to phosphorylated LRP6 leads to rapid degradation. Then inhibition of Axin/LRP6 binding should […] degradation of Axin. Indeed, Axin degradation is reduced by both inhibitors (data not shown). […] PKA and PKC also were examined to determine whether they regulate PTH-induced PTH1R/LRP6 complex formation. […] Apparently, the receptor complex formation is independent of activation of PKA and PKC. Instead, it seems that activation of G protein-mediated PKA and PKC signaling is in parallel with the recruitment of LRP5/6 in PTH signaling. PKA and PKC activity is required for LRP5/6 phosphorylation and Axin/LRP6 binding.
Wnts induce binding of Axin to phosphorylated LRP6, and the membrane-bound Axin undergoes rapid protein dephosphorylation and degradation, which eventually leads to β-catenin stabilization Willert et al., 1999; Yamamoto et al., 1999).

For a further test, the target named is T1, PTH1R/LRP5/6 complex (Rattus norvegicus, UniProt P25961).
T1 construct: endogenous in cells; host or cells: UMR-106
T1 sequence (P25961 27-591): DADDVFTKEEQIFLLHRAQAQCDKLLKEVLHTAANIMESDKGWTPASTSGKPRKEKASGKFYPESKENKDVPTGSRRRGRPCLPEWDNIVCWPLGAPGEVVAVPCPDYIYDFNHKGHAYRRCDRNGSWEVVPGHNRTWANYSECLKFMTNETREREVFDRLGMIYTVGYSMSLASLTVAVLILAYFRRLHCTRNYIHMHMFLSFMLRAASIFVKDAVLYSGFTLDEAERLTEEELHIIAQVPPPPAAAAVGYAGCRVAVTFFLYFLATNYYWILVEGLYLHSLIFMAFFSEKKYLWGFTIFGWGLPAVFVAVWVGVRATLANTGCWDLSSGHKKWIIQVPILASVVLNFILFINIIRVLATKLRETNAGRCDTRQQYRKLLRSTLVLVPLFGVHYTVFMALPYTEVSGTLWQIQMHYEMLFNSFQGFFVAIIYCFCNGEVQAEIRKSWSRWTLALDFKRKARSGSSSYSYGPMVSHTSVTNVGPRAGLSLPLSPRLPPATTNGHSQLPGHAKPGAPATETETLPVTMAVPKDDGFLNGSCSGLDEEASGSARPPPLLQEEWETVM
In words: Co-immunoprecipitation of endogenous PTH1R with LRP5/6 in UMR-106 cells. The settings on record: 5×10^−7 M PTH (1-84). How it is done: Endogenous LRP5 or LRP6 was coimmunoprecipitated with PTH1R in UMR 106 cells. UMR 106 cells were treated with 5×10^−7 M PTH (1-84) for indicated times. […] VSVG-tagged LRP6 was cotransfected into HEK 293 cells with HA-PTH1R, and the cells were treated with 5×10^−7 M PTH (1-84) for 1 hour. The LRP6-associated PTH ligand was determined by Western blotting of the anti-VSVG immunoprecipitates. […] VSVG-tagged LRP6, LRP6N, or LRP6C was cotransfected into HEK 293 cells with HA-PTH1R, and the cells were treated with or without 5×10^−7 M PTH (1-84) for 1 hour. The PTH1R-associated LRP6, LRP6N, or LRP6C was determined by Western blotting of the anti-HA immunoprecipitates, and the LRP6-, LRP6N- or LRP6C-associated PTH1R and PTH ligand was determined by Western blotting with an anti-VSVG antibody. […] The PTH1R-associated LRP6 was determined by Western blotting. […] The effect of LRP-6N on PTH-induced TCF4 activation was determined by luciferase assays.
To determine if PTH (1-84) induced the formation of a complex of endogenous PTH1R with LRP5/6, an immunoprecipitation assay in osteoblastic UMR-106 cells was used. […] The cell lysates isolated from transfected cells treated with or without PTH were subjected to immunoprecipitation with anti-PTH1R antibodies, and the immunocomplex was detected by Western blotting with a monoclonal antibody that recognizes both LRP5 and LRP6. […]

Test [2] deals with TGF-β-induced transcription activity. Kind of test: Smad binding response luciferase reporter (SBE-luc) in 293 cells. The settings on record: TGF-β 2 ng/ml, 50 nM. How it is done:
A Smad binding response luciferase reporter (SBE-luc) was transfected into 293 cells. TGF-β (2 ng/ml) was added in combination with different doses of PTH (1-34) or cPTH (39-84). Twenty-four hours after transfection, the cells were lysed and the luciferase signal was detected. Luciferase values shown in the figures are representative of transfection experiments performed in triplicate in at least three independent experiments. The relative increased fold of the luciferase activity stimulated by TGF-β in each cell line was calculated.
A Smad binding response luciferase reporter (SBE-luc) was introduced into the multi-cloning site of pcDNA3 (Invitrogen), and the resulting vector was transfected into 293 cells using Lipofectamine Plus reagent (Invitrogen, Cat. No. 10964-013). TGF-β (2 ng/ml) was added in combination with different doses of PTH (1-34) (50 nM) or cPTH (39-84) (50 nM). […] Forty-two hours after transfection, the cells were lysed, and the luciferase signal was detected using the Dual Luciferase assay kit (Promega) according to the manufacturer's instructions.
Luciferase values shown in the figures are representative of transfection experiments performed in triplicate in at least three independent experiments. The relative increased fold of the luciferase activity stimulated by TGF-β in each cell line was calculated.

Turning to `O=S(=O)(NCCNC/C=C/c1ccc(Br)cc1)c1cccc2cnccc12` [H89], in test [1], the “inhibition of PTH-stimulated TCF4-luciferase reporter activity” value is on record as “inhibited activity from a TCF4-luciferase reporter”. Further, the “inhibition of PTH-induced β-catenin stabilization” value in the test with β-catenin was “inhibit PTH-induced β-catenin stabilization”. Besides, the “inhibition of PTH-induced binding of Axin to LRP6” value with LRP6/Axin binding is “inhibit the binding of Axin with LRP6”.

As for Calphostin C, in test [1], the “inhibition of PTH-stimulated TCF4-luciferase reporter activity” value was “inhibited activity from a TCF4-luciferase reporter”. In addition, in the test with β-catenin, the “inhibition of PTH-induced β-catenin stabilization” value was “less effective; also recorded: inhibit PTH-induced β-catenin stabilization”. Also, in the test on LRP6/Axin binding, the “inhibition of PTH-induced binding of Axin to LRP6” value is given as “much weaker; also recorded: inhibit the binding of Axin with LRP6”.

On to “PTH 79-84: C-terminal PTH ligand as printed; possibly misprint of 39-84 (TKAKSQ; Parathyroid hormone; UniProt P01270 110-115, looked up, fragment)”, for which the Axin-LRP6 binding entry in the test with LRP6/Axin binding was “did not”. Also, the Axin protein levels entry with Axin was “did not affect Axin level”.

Take “PTH (1-84): Full-length PTH or PTH ligand, 84 amino acids long, represented as 1-84”: the TCF luciferase activity entry in test [1] was “significantly elevated”. Further, the “activation of TCF4-Luc reporter” value in test [1] (10^−7M PTH (1-84), 12 hours) is on record as “activates the Wnt signaling pathway”. Further, the “β-catenin levels in cytosolic and nuclear fractions” value with β-catenin (5×10^−7 M PTH (1-84), 30 minutes) is “stimulated the levels of β-catenin in both the cytoplasm and the nucleus”. In addition, in the test with PTH1R/LRP5/6 complex, the “interaction between endogenous LRP5/6 and PTH1R” value is “induced the interaction between endogenous LRP5/6 and PTH1R in a time dependent manner”. Also, the “time of peak of PTH-induced LRP5/6-PTH1R interaction” value in the test with PTH1R/LRP5/6 complex worked out at 1 h. Besides, the Axin-LRP6 binding result was “induces LRP6/Axin binding” in the test with LRP6/Axin binding and “stimulated Axin-LRP6 binding” in the test with LRP6/Axin binding (listed as PTH1-84). In addition, the Axin protein levels result with Axin is reported as “further downregulated Axin protein levels”.

As for “PTHrP 1-40: PTHrP fragment 1-40 tested beside PTH ligands”, in test [1], the TCF luciferase activity entry is “significantly elevated”. For the same molecule, the Axin-LRP6 binding result with LRP6/Axin binding is given as “stimulated Axin-LRP6 binding”. Moreover, the Axin protein levels entry with Axin is “further downregulated Axin protein levels”.

On to “cPTH (39-84): C-terminal fragment of PTH, amino acids 39-84 (APLAPRDAGSQRPRKKEDNVLVESHEKSLGEADKADVNVLTKAKSQ; Parathyroid hormone; UniProt P01270 70-115, looked up, fragment)”, for which the TCF luciferase activity result in test [1] is “only a marginal increase”. In test [2], the “effect on TGF-β-induced transcription activity (SBE-luc)” value was “inhibited TGF-β-induced transcription activity”.
